# Test results from article PMC7761830, “Structure-Based Virtual Screening of Ultra-Large Library Yields Potent Antagonists for a Lipid GPCR” (Biomolecules, 2020).
# Legend:
# wild-type CysLT2R = molecular target: T1, wild-type CysLT2R (Homo sapiens, UniProt Q9NS75); assay: IP1 production assay, antagonist mode, co-stimulation with EC80 LTD4; format: cell-based; details: for inhibition at 30 µM: HEK293, compound 30 µM, LTD4 at EC80, HEK293, wild-type CysLT2R, read-out: inhibition of LTD4-induced IP1 production, single-concentration screen; for Emax: HEK293, read-out: CysLT2R (LTD4) % Max Inhibition ± SEM
# T1 construct: expressed in transfected cells; host or cells: HEK293 (ATCC CRL-1573), transient transfection with Lipofectamine 3000
# T1 sequence (Q9NS75 1-346): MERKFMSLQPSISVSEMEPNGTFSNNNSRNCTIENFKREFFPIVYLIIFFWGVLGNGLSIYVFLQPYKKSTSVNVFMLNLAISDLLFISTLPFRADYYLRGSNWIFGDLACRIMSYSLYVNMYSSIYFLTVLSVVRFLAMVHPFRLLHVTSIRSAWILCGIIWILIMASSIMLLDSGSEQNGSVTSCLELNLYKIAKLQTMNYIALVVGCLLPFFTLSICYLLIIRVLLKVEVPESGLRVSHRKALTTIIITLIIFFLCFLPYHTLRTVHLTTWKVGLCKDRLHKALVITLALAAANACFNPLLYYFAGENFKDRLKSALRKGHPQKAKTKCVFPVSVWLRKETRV
# Protocol: (§1) For this assay, we used the Cisbio IP-One kit as previously described. […] At 48 h post-transfection, the media was removed and the cells were washed with fresh Hank’s Balanced Salt Solution (HBSS). […] After compound stimulation, the cells were incubated for 1 h at 37 °C and stimulated with IP1-D2 and Ab-Crypt reagents in Lysis Buffer. The cells were then incubated at room temperature for an additional hour. […] Normalized data were plotted using either the three-parameter or four-parameter EC50/IC50 fits of GraphPad Prism 8 (San Diego). […] Data represent the means ± SEM of at least three independent experiments performed in quadruplicate.
# wild-type CysLT1R = molecular target: T2, wild-type CysLT1R (Homo sapiens, UniProt Q9Y271); assay: as above; format: cell-based; details: for inhibition at 30 µM: HEK293, compound 30 µM, LTD4 at EC80, HEK293, wild-type CysLT1R, read-out: inhibition of LTD4-induced IP1 production, single-concentration screen; for Emax: HEK293, read-out: CysLT1R (LTD4) % Max Inhibition ± SEM; for extent of inhibition of LTD4-mediated response at CysLT1R (in words): antagonist mode, 1.5 to 100 µM
# T2 construct: expressed in transfected cells; host or cells: HEK293 (ATCC CRL-1573), transient transfection with Lipofectamine 3000
# T2 sequence (Q9Y271 1-337): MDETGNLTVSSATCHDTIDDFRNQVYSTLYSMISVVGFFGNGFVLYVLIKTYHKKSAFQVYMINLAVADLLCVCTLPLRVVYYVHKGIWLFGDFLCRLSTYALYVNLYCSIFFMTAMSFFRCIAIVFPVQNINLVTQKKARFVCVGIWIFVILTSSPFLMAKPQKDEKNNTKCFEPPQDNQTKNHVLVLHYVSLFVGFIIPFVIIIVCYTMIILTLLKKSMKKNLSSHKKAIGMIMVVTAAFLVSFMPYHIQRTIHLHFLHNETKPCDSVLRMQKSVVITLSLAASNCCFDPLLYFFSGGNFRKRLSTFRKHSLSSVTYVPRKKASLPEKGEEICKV
# Protocol: as §1
Compound,remaining activity at 30 µM (wild-type CysLT2R),remaining activity at 30 µM (wild-type CysLT1R),further results
O=C(c1cc(C(F)(F)F)n[nH]1)N1CCC2(C1)CN(C(=O)[C@@H]1C[C@H]1c1cccnc1)C2 [BRI-12459],69.1%,77.6%,
O=C(O)CNS(=O)(=O)c1ccc(-c2ccc3c(c2)CCC3)s1 [BRI-12451],61.2%,65.3%,
Cn1cc(C(N)=O)c(NC(=O)CCc2cccc(C(F)(F)F)c2)n1 [BRI-12327],73.4%,68.5%,
CC(CNS(=O)(=O)c1csc(-c2ccc(F)cc2)n1)C(=O)O (stereo not drawn) [BRI-12464],60.8%,103%,
O=C(NCC(O)c1cccc(OCc2ccccc2)c1)c1cc(=O)[nH]c2ccc(F)cc12 (stereo not drawn) [BRI-12409],62.3%,73.3%,
O=C(O)CC(NC(=O)Cn1ncc2ccccc21)c1ccc(F)cc1 (stereo not drawn) [BRI-12305],109%,93.1%,
O=C1COc2ccc(C(=O)Cn3cnc4sc5c(c4c3=O)CCC5)cc2N1 [BRI-12335],74.8%,73.8%,
O=C(O)CCC1CCCCN1C(=O)C1CCc2ncncc2C1 (stereo not drawn) [BRI-12302],70%,87.4%,
O=C(Nc1cnc2[nH]ccc2c1)c1cnc2c(c1)c(=O)[nH]c(=O)n2Cc1ccccc1 [BRI-12401],35.6%,89.5%,inhibition at 30 µM (wild-type CysLT2R): ≥ 50%; Emax (wild-type CysLT2R): 19 ± 15%
O=C(Cc1ccc(S(=O)(=O)CCO)cc1)Nc1ccc(-c2nc3cccc(Cl)c3s2)cc1 [BRI-12452],77.4%,76.5%,
O=C(O)COc1ccc(C=Cc2ccc3cccc(O)c3n2)cc1 [BRI-12340],78.9%,70.2%,
O=C(O)CN(CC(=O)O)S(=O)(=O)Cc1cc(Cl)cc(Cl)c1 [BRI-12456],65.2%,96.3%,
CC(Sc1n[nH]c(=O)n1C1CC1)C(=O)c1c[nH]c2ccccc12 (stereo not drawn) [BRI-12342],81.2%,71.7%,
CC(O)CN(C(=O)Nc1ccc2c(c1)CCCC2=O)C1CC1 (stereo not drawn) [BRI-12423],68.2%,89.7%,
CCOc1ccc(NC(=O)c2cccn3nnnc23)c(C(N)=O)c1 [BRI-12469],52.8%,80.7%,
NS(=O)(=O)c1cncc(-c2noc(CN(Cc3ccccc3)c3ccccc3)n2)c1 [BRI-12410],46.7%,45.2%,inhibition at 30 µM (wild-type CysLT2R): ≥ 50%; Emax (wild-type CysLT2R): 18 ± 9%; Ki (wild-type CysLT1R): 0.59 ± 0.12 µM; inhibition at 30 µM (wild-type CysLT1R): ≥ 50%; Emax (wild-type CysLT1R): 64 ± 7%; extent of inhibition of LTD4-mediated response at CysLT1R (in words) (wild-type CysLT1R): partial antagonism
O=C(O)CCN(CC1CCCO1)C(=O)c1cc(-c2ccccc2Cl)[nH]n1 (stereo not drawn) [BRI-12320],90.5%,81.4%,
Cc1nonc1CC(=O)NC1(CNC(=O)c2cc3occc3s2)CCC1 [BRI-12463],57.8%,81.2%,
O=C(Cc1cccc(OCc2cccnc2)c1)Nc1cccc(-n2ccc(C(=O)O)n2)c1 [BRI-12414],84.9%,81.8%,
Cc1ccccc1Nc1nc2sc(C(=O)NCCc3nnc4n3CCNC4=O)cc2s1 [BRI-12435],77.1%,54.5%,inhibition at 30 µM (wild-type CysLT1R): ≥ 50%; Emax (wild-type CysLT1R): 46 ± 20%
O=C(O)CC(NS(=O)(=O)Cc1cccc2cccnc12)c1cnn(-c2ccccc2)c1 (stereo not drawn) [BRI-12460],73.5%,83.9%,
O=C(NCC1(O)CN(C(=O)c2ccc(=O)[nH]c2)C1)c1ccc2c(c1)CCC2 [BRI-12467],53.8%,69.4%,
c1ccc(C(CNc2ccc3nnnn3n2)c2c[nH]c3ccccc23)cc1 (stereo not drawn) [BRI-12355],91.8%,76.8%,
COc1ccccc1OCc1ccc(C(=O)N[C@@H](CC(=O)O)c2ccc(Cl)cc2)o1 [BRI-12443],82.3%,84.5%,
COC[C@@H](C)n1c(-c2ccc3[nH]c(=O)oc3c2)csc1=Nc1ccc(C(N)=O)cc1 [BRI-12477],60.6%,74.9%,
O=C(O)CSc1nc2ccccc2c2nc(CCc3ccccc3)nn12 [BRI-12314],96.9%,66.7%,

# Continued, in another order:
remaining activity at 30 µM (wild-type CysLT2R),remaining activity at 30 µM (wild-type CysLT1R),Compound,further results
90.6%,66.6%,O=C(NCC(F)(F)F)c1cccc(NC(=O)C2C3C=CC(C3)C2C(=O)O)c1 (stereo not drawn) [BRI-12346],
67.4%,83.8%,O=C(O)c1cccc(NC(=O)c2ccc(N3CCNC3=O)cc2)c1 [BRI-12457],
58.4%,87.6%,COc1ccccc1C(=O)NCC1CN(C(=O)c2ccc3[nH]c(=O)n(C)c3c2)C1 [BRI-12461],
41.8%,72.6%,NS(=O)(=O)c1cc(C(=O)NCCc2ccc(OCC(=O)O)cc2)cs1 [BRI-12426],inhibition at 30 µM (wild-type CysLT2R): ≥ 50%; Emax (wild-type CysLT2R): 5 ± 9%
92.1%,77.3%,CC1CC1C(=O)NCCC(=O)Nc1cccc(Cl)c1-n1cncn1 (stereo not drawn) [BRI-12336],
91.3%,83.4%,O=C(O)CC(NC(=O)c1ccc2[nH]ccc2c1)c1ccccc1 (stereo not drawn) [BRI-12361],
57.3%,55.9%,Cc1cccc(COc2ccc(CNS(=O)(=O)N(C)CCC(=O)O)cc2)c1 [BRI-12411],Ki (wild-type CysLT1R): 0.72 ± 0.16 µM; inhibition at 30 µM (wild-type CysLT1R): ≥ 50%; Emax (wild-type CysLT1R): 66 ± 18%; extent of inhibition of LTD4-mediated response at CysLT1R (in words) (wild-type CysLT1R): partial antagonism
92.8%,84.3%,CN(CC(=O)Nc1ccc2[nH]ncc2c1)C1=NS(=O)(=O)c2ccccc21 [BRI-12331],
66.6%,86.5%,O=C(O)CNC(=O)c1ccc(NC(=O)COCc2ccccc2)cc1 [BRI-12473],
64.2%,91.7%,CC(C)NC(=O)Nc1ccc(C(=O)Nc2ccc(OCC(=O)O)c(Cl)c2)cc1 [BRI-12420],
112%,81.2%,C[C@@H]1C[C@H](C(=O)Nc2cccc(NC(=O)c3cccs3)c2)O[C@H]1C(=O)O [BRI-12306],
67.5%,93.9%,O=C(O)C1CN(C(=O)Nc2cc(Br)ccn2)CCO1 (stereo not drawn) [BRI-12436],
67.9%,65.4%,NC(=O)c1ccc(CNC(=O)c2ccc(NC(=O)c3ccc(Cl)c(Cl)c3)cc2O)o1 [BRI-12418],
89.2%,86.4%,O=C(O)CNC(=O)c1ccc(NC(=O)c2cc3ccccn3c2)cc1 [BRI-12317],
72%,89.5%,O=C(NC(C(=O)O)c1ccccc1F)c1ccc(Cl)c(NC(=O)c2cccs2)c1 (stereo not drawn) [BRI-12403],
48.4%,77.4%,NC(=O)CN1CCN(C(=O)c2ccccc2NC(=O)c2ccc(Cl)cc2)CC1=O [BRI-12454],inhibition at 30 µM (wild-type CysLT2R): ≥ 50%; Emax (wild-type CysLT2R): 6 ± 10%
95.1%,87.8%,O=C(NC1CCCC1)c1ccc(NC(=O)C2C3C=CC(C3)C2C(=O)O)cc1 (stereo not drawn) [BRI-12321],
87.8%,88.8%,O=C(O)CNC(=O)c1ccc(NC(=O)C2Cc3cc(F)ccc3O2)cc1 (stereo not drawn) [BRI-12329],
56.8%,85.1%,O=C(CCCc1ccc2[nH]c(=O)[nH]c2c1)Nc1ccc(C(=O)Nc2cccnc2)cc1 [BRI-12415],
68.2%,96.1%,Cc1cnnn1-c1ccc(NC(=O)c2cccc(NC(=O)CCCc3cccs3)c2)cc1 [BRI-12444],
66.4%,90.1%,CC1(C(=O)Nc2ccc(C(=O)NCCC(=O)O)cc2)CCOCC1 [BRI-12476],
93.4%,72.1%,NC(=O)COc1cccc(C(=O)NC(CC(=O)O)c2ccc(Cl)c(F)c2)c1 (stereo not drawn) [BRI-12330],
